“And” between values parts separate entries of the source, which are not always exact repeats. Equal values may be shown once.
Test system: NCI-H929 complex spheroids, viability % test/control
Assay: Anticancer human tumor NCI-H929 cell line growth inhibition [RAS];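 note: compound exposure lasted seven days before viability was read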;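 for viability, T/C: 100% = DMSO vehicle control viability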
Settings: for viability, T/C: stronger effect = lower value
Outline: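 Agents were tested in combination matrices in half-log decrements from a top concentration at or near clinical Cmax (10 microM if undetermined). Targets were multi-cell spheroids of tumour lines plus HUVEC and MSC stromal cells.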

For `CCc1c2c(nc3ccc(O)cc13)-c1cc3c(c(=O)n1C2)COC(=O)[C@]3(O)CC`, the viability, T/C (compound 0.000949 µM) was 110% and 80.3% and 104% (2×), the viability, T/C (compound 0.003 µM) was 15.8% [middle of 4 runs] and the viability, T/C (compound 0.00949 µM) was 1.38% [middle of 4 runs]. For the same compound, the viability, T/C (compound 0.03 µM) was 1.43% [middle of 4 runs], the viability, T/C (compound 0.0949 µM) was 1.87% [middle of 4 runs] and the viability, T/C (compound 0.3 µM) was 1.15% [middle of 4 runs]. For the same compound, the IC50 (curve of compound) was 1.97 nM [middle of 4 runs].

With `C[C@@H](NC(=O)c1ncnc(N)c1Cl)c1ncc(C(=O)Nc2cc(C(F)(F)F)c(Cl)cn2)s1` the viability, T/C (compound 0.0316 µM) was 106% [middle of 4 runs], the viability, T/C (compound 0.1 µM) was 103% (2×) and 98.6% and 92.7% and the viability, T/C (compound 0.316 µM) was 98.6% [middle of 4 runs]. The viability, T/C (compound 1 µM) was 95.3% [middle of 4 runs], the viability, T/C (compound 3.16 µM) was 97.7% [middle of 4 runs] and the viability, T/C (compound 10 µM) was 108% [middle of 4 runs]. The IC50 (curve of compound) was over 10 µM.

`C[C@@H](NC(=O)c1ncnc(N)c1Cl)c1ncc(C(=O)Nc2cc(C(F)(F)F)c(Cl)cn2)s1` + CCn1c(-c2cc(N3CCN(C)CC3)cnc2C(C)OC)c2c3cc(ccc31)-c1csc(n1)CC(NC(=O)C1CC1C)C(=O)N1CCCC(N1)C(=O)OCC(C)(C)C2 showed an IC50 (curve of first compound, second compound 0.000949 µM) of over 10 µM, an IC50 (curve of first compound, second compound 0.003 µM) of over 10 µM and an IC50 (curve of first compound, second compound 0.00949 µM) of over 10 µM. It also gave an IC50 (curve of first compound, second compound 0.03 µM) of over 10 µM, an IC50 (curve of first compound, second compound 0.0949 µM) of under 0.0316 µM and an IC50 (curve of first compound, second compound 0.3 µM) of under 0.0316 µM. For the same compound, the viability, T/C (second compound 0.000949 µM, first compound 0.0316 µM) was 104%, the viability, T/C (second compound 0.000949 µM, first compound 0.1 µM) was 100% and the viability, T/C (second compound 0.000949 µM, first compound 0.316 µM) was 102%. It also gave a viability, T/C (second compound 0.000949 µM, first compound 1 µM) of 98.9%, a viability, T/C (second compound 0.000949 µM, first compound 3.16 µM) of 104% and a viability, T/C (second compound 0.000949 µM, first compound 10 µM) of 112%. The viability, T/C (second compound 0.003 µM, first compound 0.0316 µM) was 95.8%, the viability, T/C (second compound 0.003 µM, first compound 0.1 µM) was 99.7% and the viability, T/C (second compound 0.003 µM, first compound 0.316 µM) was 103%. For the same compound, the viability, T/C (second compound 0.003 µM, first compound 1 µM) was 101%, the viability, T/C (second compound 0.003 µM, first compound 3.16 µM) was 105% and the viability, T/C (second compound 0.003 µM, first compound 10 µM) was 114%. The viability, T/C (second compound 0.00949 µM, first compound 0.0316 µM) was 91.8%, the viability, T/C (second compound 0.00949 µM, first compound 0.1 µM) was 104% and the viability, T/C (second compound 0.00949 µM, first compound 0.316 µM) was 107%. The viability, T/C (second compound 0.00949 µM, first compound 1 µM) was 111%, the viability, T/C (second compound 0.00949 µM, first compound 3.16 µM) was 111% and the viability, T/C (second compound 0.00949 µM, first compound 10 µM) was 115%. It also gave a viability, T/C (second compound 0.03 µM, first compound 0.0316 µM) of 114%, a viability, T/C (second compound 0.03 µM, first compound 0.1 µM) of 121% and a viability, T/C (second compound 0.03 µM, first compound 0.316 µM) of 120%. It also gave a viability, T/C (second compound 0.03 µM, first compound 1 µM) of 119%, a viability, T/C (second compound 0.03 µM, first compound 3.16 µM) of 115% and a viability, T/C (second compound 0.03 µM, first compound 10 µM) of 89.2%. For the same compound, the viability, T/C (second compound 0.0949 µM, first compound 0.0316 µM) was 19.9%, the viability, T/C (second compound 0.0949 µM, first compound 0.1 µM) was 28.3% and the viability, T/C (second compound 0.0949 µM, first compound 0.316 µM) was 35.9%. For the same compound, the viability, T/C (second compound 0.0949 µM, first compound 1 µM) was 43.4%, the viability, T/C (second compound 0.0949 µM, first compound 3.16 µM) was 45.6% and the viability, T/C (second compound 0.0949 µM, first compound 10 µM) was 18.5%. For the same compound, the viability, T/C (second compound 0.3 µM, first compound 0.0316 µM) was 6.79%, the viability, T/C (second compound 0.3 µM, first compound 0.1 µM) was 9.47% and the viability, T/C (second compound 0.3 µM, first compound 0.316 µM) was 9.99%. The viability, T/C (second compound 0.3 µM, first compound 1 µM) was 13.3%, the viability, T/C (second compound 0.3 µM, first compound 3.16 µM) was 14.1% and the viability, T/C (second compound 0.3 µM, first compound 10 µM) was 8.3%.

From PubChem BioAssay AID2060884 (Molecular Pharmacology Branch, DTP, NCI, 2025)
